Assay [1] concerns the target T1, human sodium channels Nav 1.8 (Homo sapiens, UniProt Q9Y5Y9).
T1 construct: expressed in transfected cells
Description: Automated whole-cell voltage-clamp (ScreenPatch 384P) sodium current block in CHO cells expressing Nav 1.8. Format: cell-based. To be noted: CHO cells stably expressing human Nav 1.8; whole cell patch clamp, inactivation step -40 mV 8 s, test step 10 mV (TP1A), room temperature; mean where tested in two or more assays; read-out: Nav1.8 IC50. As for the experimental part:
(§1) Biological assays were performed on Chinese hamster ovary (CHO) cells that express human sodium channels Nav 1.8 or Nav 1.7 in a stable manner.
(§2) The experimental protocol voltage-clamp using the whole cell configuration was established on the automated ScreenPatch© 384P platform (SP384PE, Nanion Technologies, Livingston, NJ) and the results were recorded with a Nanion 384-well Patch Clamp chip (NPC) (Nanion Technologies, Livingston, NJ).
(§3) Formula I compounds were diluted in eight concentrations in the extracellular solution composed of saline saline solution, buffered with HEPES (mM): NaCl, 137; KCl, 4; CaCl2, 3.8; MgCl2, 1; HEPES, 10; Glucose, 10; pH 7.4. The […], 50; CsF, 90; MgCl2, 5; EGTA, 5; HEPES, 10; pH 7.2. The duration of exposure of each compound with cells expressing Nav 1.7 or Nav 1.8 was at least five minutes, and the assays were performed at room temperature.
(§4) The measurements of the sodium currents of Nav 1.8 and Nav 1.7 were obtained using the voltage protocol described below.
(§5) A holding voltage of −100 mV was established followed by an inactivation voltage step at −40 mV for 8 seconds, followed by a step of −100 mV for 20 ms, followed by a 20 ms step for 10 mV for Nav 1.8 or 0 mV for Nav 1.7 (TP1A) before returning to the holding voltage of −100 mV.
(§6) The protocol was repeated at a frequency of 0.05 Hz and the amplitude of the current was quantified throughout the recording of the TP1A phase. The variation in the amplitude of the peak current was evaluated according to the formula described below, after exposing the cells expressing the channels to each concentration of the different compounds:
(§7) wherein ITP1A,basal and ITP1A,molecule represent the peaks of sodium current input into TP1A before exposure to the compound and in the presence of the compound, respectively.
(§8) The decrease in the amplitude of the peak current, after the exposure of the cells to the compounds, was used to calculate the percentage of relative blockage of the channels in relation to the positive control according to the formula below: […]
(§9) wherein % V and % CP represent the means of the values of current inhibition with a vehicle (DMSO) and positive controls, respectively. The sodium currents of the positive control were considered as 100%.
(§10) wherein [Test] represents the concentration of the molecule evaluated, CI50 is the concentration of the compound that generates half of the maximum inhibition, N is the Hill coefficient, and % Block′ is the percentage of sodium channel current (Nav 1.8 and Nav 1.7) blocked at each concentration of the molecule evaluated. Data were obtained by nonlinear regression (nonlinear least squares) with XLfit for Excel (Microsoft, Redmond, WA).
(§11) The compounds were tested in at least one assay to obtain the value of CI50. For compounds that were tested in two or more assays, the results are described as the means of the CI50 values.

For assay [2], the target named is T2, human sodium channels Nav 1.7 (Homo sapiens, UniProt Q15858).
T2 construct: expressed in transfected cells
Description: Automated whole-cell voltage-clamp (ScreenPatch 384P) sodium current block in CHO cells expressing Nav 1.7. It counts as cell-based. To be noted: CHO cells stably expressing human Nav 1.7; whole cell patch clamp, inactivation step -40 mV 8 s, test step 0 mV (TP1A), room temperature; mean where tested in two or more assays; read-out: Nav1.7 IC50. As for the experimental part:
as §1, §2, §3, §4, §5, §6, §7, §8, §9, §10, §11

T2 sequence (Q15858 whole entry): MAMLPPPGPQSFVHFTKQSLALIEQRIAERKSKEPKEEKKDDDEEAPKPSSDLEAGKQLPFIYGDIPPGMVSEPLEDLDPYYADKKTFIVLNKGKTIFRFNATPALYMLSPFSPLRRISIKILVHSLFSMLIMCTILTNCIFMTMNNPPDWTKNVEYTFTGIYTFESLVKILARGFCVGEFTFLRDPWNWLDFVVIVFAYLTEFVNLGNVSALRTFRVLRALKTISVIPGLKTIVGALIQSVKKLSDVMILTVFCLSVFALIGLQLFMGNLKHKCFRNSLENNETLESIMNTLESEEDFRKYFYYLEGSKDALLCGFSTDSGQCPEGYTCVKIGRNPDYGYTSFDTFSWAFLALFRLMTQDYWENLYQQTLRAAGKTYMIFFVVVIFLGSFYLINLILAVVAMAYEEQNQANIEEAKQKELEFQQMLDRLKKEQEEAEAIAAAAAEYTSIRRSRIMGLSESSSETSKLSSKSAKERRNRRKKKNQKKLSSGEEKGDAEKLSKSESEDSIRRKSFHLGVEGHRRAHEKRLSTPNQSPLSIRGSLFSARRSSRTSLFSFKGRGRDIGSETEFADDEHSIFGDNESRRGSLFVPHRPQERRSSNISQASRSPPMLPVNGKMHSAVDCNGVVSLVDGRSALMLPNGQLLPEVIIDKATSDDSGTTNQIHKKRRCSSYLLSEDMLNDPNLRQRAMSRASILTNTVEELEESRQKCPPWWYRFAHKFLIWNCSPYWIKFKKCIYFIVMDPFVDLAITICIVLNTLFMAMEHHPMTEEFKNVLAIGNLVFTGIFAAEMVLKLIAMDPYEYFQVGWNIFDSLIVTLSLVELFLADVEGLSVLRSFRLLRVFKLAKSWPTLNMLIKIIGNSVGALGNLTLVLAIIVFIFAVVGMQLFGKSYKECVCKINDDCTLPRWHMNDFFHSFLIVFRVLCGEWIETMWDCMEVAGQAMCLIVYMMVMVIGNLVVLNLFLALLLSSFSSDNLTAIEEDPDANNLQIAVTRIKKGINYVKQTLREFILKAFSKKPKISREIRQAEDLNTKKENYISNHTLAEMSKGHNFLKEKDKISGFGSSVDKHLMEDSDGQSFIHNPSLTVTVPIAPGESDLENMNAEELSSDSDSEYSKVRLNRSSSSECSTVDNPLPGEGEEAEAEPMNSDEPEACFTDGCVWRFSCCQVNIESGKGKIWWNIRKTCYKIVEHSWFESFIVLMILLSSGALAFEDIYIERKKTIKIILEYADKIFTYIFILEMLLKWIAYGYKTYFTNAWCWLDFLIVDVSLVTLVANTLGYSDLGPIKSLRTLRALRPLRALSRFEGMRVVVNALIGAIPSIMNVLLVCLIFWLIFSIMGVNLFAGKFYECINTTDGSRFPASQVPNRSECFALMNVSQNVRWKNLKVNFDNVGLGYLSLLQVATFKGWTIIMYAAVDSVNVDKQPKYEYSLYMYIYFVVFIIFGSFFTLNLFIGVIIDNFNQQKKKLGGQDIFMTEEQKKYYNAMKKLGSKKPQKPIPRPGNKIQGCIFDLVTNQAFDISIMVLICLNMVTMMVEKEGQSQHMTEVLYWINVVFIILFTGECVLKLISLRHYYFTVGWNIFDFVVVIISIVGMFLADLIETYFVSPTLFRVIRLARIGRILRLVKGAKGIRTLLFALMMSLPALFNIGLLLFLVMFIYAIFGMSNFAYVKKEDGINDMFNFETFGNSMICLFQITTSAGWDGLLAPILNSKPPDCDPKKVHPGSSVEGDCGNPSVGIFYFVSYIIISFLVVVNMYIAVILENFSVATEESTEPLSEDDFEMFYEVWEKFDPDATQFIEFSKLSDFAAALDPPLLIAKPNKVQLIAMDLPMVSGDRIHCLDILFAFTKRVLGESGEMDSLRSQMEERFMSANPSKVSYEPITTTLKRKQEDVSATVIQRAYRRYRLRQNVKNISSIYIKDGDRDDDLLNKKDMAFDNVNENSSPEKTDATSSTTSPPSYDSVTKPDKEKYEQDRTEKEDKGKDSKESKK
T1 sequence (Q9Y5Y9 whole entry): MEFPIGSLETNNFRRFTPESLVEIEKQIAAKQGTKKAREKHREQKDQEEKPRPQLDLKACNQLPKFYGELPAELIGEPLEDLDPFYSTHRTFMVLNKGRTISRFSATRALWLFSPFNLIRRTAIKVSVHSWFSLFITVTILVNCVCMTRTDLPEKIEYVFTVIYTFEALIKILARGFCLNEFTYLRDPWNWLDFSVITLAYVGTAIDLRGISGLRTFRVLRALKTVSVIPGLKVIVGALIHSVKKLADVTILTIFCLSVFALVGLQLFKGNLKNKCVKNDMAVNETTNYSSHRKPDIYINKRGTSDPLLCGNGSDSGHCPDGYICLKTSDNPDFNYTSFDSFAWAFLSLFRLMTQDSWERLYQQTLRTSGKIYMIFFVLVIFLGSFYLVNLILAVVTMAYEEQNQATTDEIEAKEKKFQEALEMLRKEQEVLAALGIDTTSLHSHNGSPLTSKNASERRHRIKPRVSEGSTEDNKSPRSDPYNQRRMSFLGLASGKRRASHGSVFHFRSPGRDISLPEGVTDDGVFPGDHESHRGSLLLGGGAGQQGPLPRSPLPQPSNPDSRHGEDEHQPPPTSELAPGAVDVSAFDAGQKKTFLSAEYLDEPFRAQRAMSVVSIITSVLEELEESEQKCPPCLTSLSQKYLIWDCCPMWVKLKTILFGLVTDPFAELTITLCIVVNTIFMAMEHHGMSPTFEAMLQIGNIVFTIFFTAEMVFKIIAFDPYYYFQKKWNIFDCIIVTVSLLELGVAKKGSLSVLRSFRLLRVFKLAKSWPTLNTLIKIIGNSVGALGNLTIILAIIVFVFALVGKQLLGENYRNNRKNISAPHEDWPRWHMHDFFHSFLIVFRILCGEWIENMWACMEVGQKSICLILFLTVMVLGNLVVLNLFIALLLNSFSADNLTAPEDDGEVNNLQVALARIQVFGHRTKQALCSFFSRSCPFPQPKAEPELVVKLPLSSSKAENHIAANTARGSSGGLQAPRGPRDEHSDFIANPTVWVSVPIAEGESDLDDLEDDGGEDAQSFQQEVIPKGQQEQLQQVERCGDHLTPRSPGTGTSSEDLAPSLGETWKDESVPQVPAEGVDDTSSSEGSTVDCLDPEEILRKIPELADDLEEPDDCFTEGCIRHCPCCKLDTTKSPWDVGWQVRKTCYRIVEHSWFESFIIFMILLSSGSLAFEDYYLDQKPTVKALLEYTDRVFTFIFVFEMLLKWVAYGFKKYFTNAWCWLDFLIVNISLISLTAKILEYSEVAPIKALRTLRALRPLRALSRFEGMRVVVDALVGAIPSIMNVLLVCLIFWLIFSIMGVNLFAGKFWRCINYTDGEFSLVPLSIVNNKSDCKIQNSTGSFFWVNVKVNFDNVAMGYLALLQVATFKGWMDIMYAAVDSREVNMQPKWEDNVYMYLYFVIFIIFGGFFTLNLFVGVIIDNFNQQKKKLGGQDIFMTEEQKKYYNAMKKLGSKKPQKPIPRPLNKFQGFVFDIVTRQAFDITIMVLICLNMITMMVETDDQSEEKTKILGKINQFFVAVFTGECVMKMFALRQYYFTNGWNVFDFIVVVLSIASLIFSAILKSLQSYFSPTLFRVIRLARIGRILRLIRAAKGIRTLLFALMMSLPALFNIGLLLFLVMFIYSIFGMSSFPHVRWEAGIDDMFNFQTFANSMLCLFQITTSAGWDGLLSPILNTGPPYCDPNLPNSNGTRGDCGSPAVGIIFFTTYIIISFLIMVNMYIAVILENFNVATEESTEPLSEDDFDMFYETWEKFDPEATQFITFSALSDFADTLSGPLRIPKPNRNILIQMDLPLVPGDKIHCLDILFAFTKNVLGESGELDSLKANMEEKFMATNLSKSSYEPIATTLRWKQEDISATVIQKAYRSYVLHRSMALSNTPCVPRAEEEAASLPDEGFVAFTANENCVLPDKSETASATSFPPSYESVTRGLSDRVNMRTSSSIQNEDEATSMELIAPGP

Regarding `CCOc1ccc(-c2cncc(C(=O)NNCc3cc(OC)ccc3C)n2)cn1` [Compound 33, 6-(6-ethoxypyridin-3-yl)-N′-(5-methoxy-2-methylbenzyl)pyrazine-2-carbohydrazide], the IC50 (usually the point on the concentration scale where inhibition reaches its midpoint) was under 500 nM in assay [1] and over 1000 nM in assay [2].
For `CCOc1ccc(-c2cncc(C(=O)NNCc3cc(OC)cnc3C)n2)cn1` [Compound 34, 6-(6-ethoxypyridin-3-yl)-N′-((5-methoxy-2-methylpyridin-3-yl)methyl)pyrazine-2-carbohydrazide], the figures for the IC50 in assay [1] and in assay [2] were under 500 nM and over 1000 nM, respectively.
For `CCOc1ccc(-c2cncc(C(=O)NNCc3ccccc3F)n2)cn1` [Compound 39, 6-(6-ethoxypyridin-3-yl)-N′-(2-fluorobenzyl)pyrazine-2-carbohydrazide], in that order: under 500 nM and over 1000 nM.
As for `CCOc1cc(C)c(-c2cncc(C(=O)NNCc3cc(OC)cc(OC)c3)n2)cn1` [Compound 40, N′-(3,5-dimethoxybenzyl)-6-(6-ethoxy-4-methylpyridin-3-yl)pyrazine-2-carbohydrazide], the IC50 in assay [1] and in assay [2] was over 1000 nM in each case.
Take `CCOc1ccc(-c2cncc(C(=O)NNCc3cc(OC)cc(OC)c3)n2)c(C)n1` [Compound 41, N′-(3,5-dimethoxybenzyl)-6-(6-ethoxy-2-methylpyridin-3-yl)pyrazine-2-carbohydrazide]: the IC50 is 500 to 1000 nM in assay [1] and over 1000 nM in assay [2].
Taken in the same sequence, the figures for `COc1cc(CNNC(=O)c2cncc(-c3ccc(OC4CC4)nc3)n2)cc(OC)c1` [Compound 42, 6-(6-cyclopropoxypyridin-3-yl)-N′-(3,5-dimethoxybenzyl)pyrazine-2-carbohydrazide] were 500 to 1000 nM and over 1000 nM.
For `CCOc1ccc(-c2cncc(C(=O)NN3CCc4ccc(OC)cc4C3)n2)cc1` [Compound 45, 6-(4-ethoxyphenyl)-N-(7-methoxy-3,4-dihydroisoquinoline-2(1H)-yl)pyrazine-2-carboxamide], in that order: under 500 nM and over 1000 nM.
In the case of `CCOc1ccc(-c2cnnc(C(=O)NNCc3ccccc3F)c2)cc1` [Compound 47, 5-(4-ethoxyphenyl)-N′-(2-fluorobenzyl)pyridazine-3-carbohydrazide], the half-inhibitory concentration (IC50) in assay [1] and in assay [2] was over 1000 nM in each case.
Regarding `CCOc1ccc(-c2ccnc(C(=O)NNCc3ccccc3F)c2)cc1` [Compound 48, 4-(4-ethoxyphenyl)-N′-(2-fluorobenzyl)picolinohydrazide], the IC50 in assay [1] and in assay [2] was over 1000 nM throughout.
`CCOc1ccc(-c2cncc(C(=O)NNCc3ccccc3F)c2)cc1` [Compound 49, 5-(4-ethoxyphenyl)-N′-(2-fluorobenzyl)nicotinohydrazide]: the IC50 was under 500 nM in assay [1] and over 1000 nM in assay [2].
For `CCOc1ccc(-c2cccc(C(=O)NNCc3ccccc3F)n2)cc1` [Compound 50, 6-(4-ethoxyphenyl)-N′-(2-fluorobenzyl)picolinohydrazide], in that order: over 1000 nM and over 1000 nM.

These data come from patent publication US20260226020A1, “Nav 1.7 AND/OR Nav 1.8 BLOCKING HYDRAZIDES, PROCESSES FOR THE PREPARATION THEREOF, COMPOSITIONS, USES, METHODS OF TREATMENT USING SAME AND KITS” (Eurofarma Laboratórios S.A., priority 2023, published 2026).
